From patent US7179898B1, “Human vanilloid receptor-like receptor” (Merck & Co., Inc., priority 1998, dated 2007)

Tests used:
[1] = molecular target: T1, human vanilloid receptor-like receptor (VR-L) (Homo sapiens, UniProt Q9Y5S1); assay: Whole-cell patch clamp of HEK 293 cells transiently transfected with vr-l cDNA; assay type: cell-based; parameters: identified as together containing the entire coding region of the VR-L gene; expressed in transfected cells; host or cells: HEK 293 cells, transient transfection; conditions: 1 μM capsaicin by fast perfusion; HEK 293 cells expressing human vr-l cDNA, -60 mV
T1 sequence (Q9Y5S1 1-764): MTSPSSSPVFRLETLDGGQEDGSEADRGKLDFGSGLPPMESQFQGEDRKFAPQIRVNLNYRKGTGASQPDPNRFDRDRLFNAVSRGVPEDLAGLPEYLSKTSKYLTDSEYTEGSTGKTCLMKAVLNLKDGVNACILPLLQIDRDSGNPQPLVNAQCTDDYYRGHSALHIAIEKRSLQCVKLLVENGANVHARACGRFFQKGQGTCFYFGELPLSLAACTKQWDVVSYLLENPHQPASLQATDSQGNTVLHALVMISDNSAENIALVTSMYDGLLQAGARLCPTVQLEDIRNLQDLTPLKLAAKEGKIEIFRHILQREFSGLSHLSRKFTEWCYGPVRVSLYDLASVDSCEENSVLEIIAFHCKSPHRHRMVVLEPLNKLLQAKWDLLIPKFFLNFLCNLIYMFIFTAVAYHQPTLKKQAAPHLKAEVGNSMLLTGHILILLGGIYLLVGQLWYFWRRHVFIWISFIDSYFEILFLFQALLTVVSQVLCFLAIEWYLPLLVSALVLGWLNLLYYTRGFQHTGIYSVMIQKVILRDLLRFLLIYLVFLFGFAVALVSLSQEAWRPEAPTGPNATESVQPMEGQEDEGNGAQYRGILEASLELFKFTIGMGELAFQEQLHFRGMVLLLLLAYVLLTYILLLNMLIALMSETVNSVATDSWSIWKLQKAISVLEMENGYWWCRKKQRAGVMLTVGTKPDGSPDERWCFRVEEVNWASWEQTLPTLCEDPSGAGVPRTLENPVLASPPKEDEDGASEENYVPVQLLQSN
Source text: A glass coverslip containing a monolayer of human embryonic kidney (HEK) 293 cells transiently transfected with the vr-l cDNA was placed in a perspex chamber mounted on the stage of a Nikon Diaphot inverted phase-contrast microscope and continuously perfused with calcium-free artificial cerebrospinal fluid (aCSF, see below). Fire-polished patch pipettes were pulled on program 10 of a WZ, DMZ-Universal puller using conventional 120TF-10 electrode-glass. Pipette tip diameter was generally 1.5–2.5 μM, resistances were approximately 4MΩ. The intracellular pipette solution used is detailed below. High resistance (>10 GΩ) seals were formed by advancing the pipette onto the cell and exerting gentle suction to break through the membrane. The cells were voltage-clamped at −60 mV, using an Axon Axopatch 2 amplifier. Drugs or heated aCSF were applied to the cell under study by fast perfusion using a large internal diameter (50–100 μM) triple-barrel pipette assembly. Drug responses were obtained by rapidly positioning the perfusion pipette to completely envelop the cell in drug solution. This was achieved via a Biologic rapid solution changer which pivots the barrels into the desired position. Fast washout was obtained by re-positioning the washout barrel in line with the cell. [table] [table]

[2] = molecular target: T1, human vanilloid receptor-like receptor (VR-L); assay: Xenopus oocyte expression, two-electrode voltage clamp at -70 mV; assay type: cell-based; conditions: 1 μM capsaicin in the perfusate; Xenopus oocytes expressing human vr-l cDNA
Method: Adult female Xenopus laevis were anaesthetized by immersion in a 0.4% solution of 3-aminobenzoic acid ethylester for 30–45 mins (or until unresponsive). Ovary tissue was removed via a small abdominal incision and Stage V and VI oocytes were isolated with fine forceps. After mild collagenase treatment to remove follicle cells (Type 1A, 0.5 mg mL^−1, for 8 mins), the oocyte nuclei were directly injected with 10–20 nl of injection buffer (88 mM NaCl, 1 mM KCl, 15 mM HEPES, at pH 7, filtered through nitrocellulose) or sterile water containing vr-l cDNA engineered into the expression vector pcDNA3.1Zeo. Following incubation for 48 hrs, oocytes were placed in a 50 μL bath and perfused at 4–6 mL min^−1 with modified Barth's medium (MBS) consisting of 88 mM NaCl, 1 mM KCl, 10 mM HEPES, 0.82 mM MgSO4, 0.33 mM Ca(NO3)2, 0.91 mM CaCl2, 2.4 mM NaHCO3, at pH 7.5. Cells were impaled with two 1–3 MΩ electrodes containing 2 M KCl and voltage clamped between at −70 mV. Drugs were applied in the perfusate and heat was applied by bath applying preheated MBS.

response (inward current) to application of drug [1]: No responses | response (inward current) to application of drug [2]: No responses
Structure (SMILES): COc1cc(CNC(=O)CCCC/C=C/C(C)C)ccc1O [capsaicin]
